Target: T1, biotinylated human IL-17 (binding to IL17R/Fc) (Homo sapiens, UniProt Q16552)
T1 construct: purchased R&D Systems 317-ILB (IL-17, biotinylated); 177-IR (IL17R/Fc)
T1 sequence (Q16552 20-155 limits assumed): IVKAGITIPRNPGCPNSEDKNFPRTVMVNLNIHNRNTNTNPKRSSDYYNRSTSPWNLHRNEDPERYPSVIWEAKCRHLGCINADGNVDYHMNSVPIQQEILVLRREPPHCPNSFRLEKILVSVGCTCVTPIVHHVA
Assay: IL-17 competition ELISA II (captured IL17R/Fc, biotinylated IL-17)
Outline: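 Anti-human IgG-coated plates captured IL17R/Fc (10 nM), then compound (5-fold dilutions from 1 μM) and biotinylated human IL-17 (20 nM stock) were added for 30 min at room temperature in PBST. Bound IL-17 detected by streptavidin-HRP/TMB at 450 nm. IC50 from 4-parameter logistic fit between no-competitor and blank controls.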

Row | IC50 [nM] | Structure (SMILES)
1 | < 100 | O=C1CC2(CCCC2)CC(=O)N[C@H](Cc2ccc(NC(=O)[C@H](Cc3ccccc3Cl)NC(=O)c3ccccc3O)cc2)C(=O)NCCOCCOCCN1 [Compound 537]
2 | 100 to 1000 | O=C1CC2(CCCC2)CC(=O)N[C@H](Cc2ccc(NC(=O)[C@H](Cc3ccccc3Cl)NC(=O)c3ccc(F)cc3O)cc2)C(=O)NCCOCCOCCN1 [Compound 538]
3 | < 100 | C[C@H]1NC(=O)[C@@H](Cc2ccc(NC(=O)[C@H](Cc3ccccc3Cl)NC(=O)Cc3ccc(F)cc3)cc2)NC(=O)CC2(CCCC2)CC(=O)N2CCN(CCNC1=O)CC2 [Compound 541]
4 | < 100 | C[C@H]1NC(=O)[C@@H](Cc2ccc(NC(=O)[C@H](Cc3ccccc3Cl)NC(=O)C(F)(F)c3ccccc3)cc2)NC(=O)CC2(CCCC2)CC(=O)N2CCN(CCNC1=O)CC2 [Compound 542]
5 | < 100 | O=C1CC2(CCCC2)CC(=O)N[C@H](Cc2ccc(NC(=O)[C@H](Cc3ccccc3Cl)NC(=O)[C@@H](O)c3ccccc3)cc2)C(=O)NCCOCCOCCN1 [Compound 544]
6 | < 100 | O=C1CC2(CCCC2)CC(=O)N[C@H](Cc2ccc(NC(=O)[C@H](Cc3ccccc3Cl)NC(=O)[C@H](O)c3ccccc3)cc2)C(=O)NCCOCCOCCN1 [Compound 545]
7 | 100 to 1000 | O=C1CC2(CCCC2)CC(=O)N[C@H](Cc2ccc(NC(=O)[C@H](Cc3ccccc3Cl)NC(=O)[C@@H](O)c3ccccc3)cc2)C(=O)NCCCCCN1 [Compound 546]
8 | 100 to 1000 | O=C1CC2(CCCC2)CC(=O)N[C@H](Cc2ccc(NC(=O)[C@H](Cc3ccccc3Cl)NC(=O)[C@H](O)c3ccccc3)cc2)C(=O)NCCCCCN1 [Compound 547]
9 | < 100 | O=C1CC2(CCCC2)CC(=O)N[C@H](Cc2ccc(NC(=O)[C@H](Cc3ccccc3Cl)NC(=O)C(=O)c3ccccc3)cc2)C(=O)NCCOCCOCCN1 [Compound 548]
10 | < 100 | C[C@H]1NC(=O)[C@@H](Cc2ccc(NC(=O)[C@H](Cc3ccccc3Cl)NC(=O)Cc3ccc(F)cc3)cc2)NC(=O)CC2(CC2)CC(=O)NCCCCCNC1=O [Compound 554]
11 | 100 to 1000 | C[C@H]1NC(=O)[C@@H](Cc2ccc(NC(=O)[C@H](Cc3ccccc3Cl)NC(=O)Cc3ccc(F)cc3)cc2)NC(=O)CN(Cc2ccccc2)CC(=O)NCCCCCNC1=O [Compound 557]
12 | < 100 | C[C@H]1NC(=O)[C@@H](Cc2ccc(NC(=O)[C@H](Cc3ccccc3Cl)NC(=O)Cc3ccc(F)cc3)cc2)NC(=O)CN(C)CC(=O)NCCCCCNC1=O [Compound 558]
13 | < 100 | O=C1CC2(CCCC2)CC(=O)N[C@H](Cc2ccc(NC(=O)[C@H](Cc3ccccc3Cl)NC(=O)C(F)(F)c3ccc(F)cc3)cc2)C(=O)NCCOCCOCCN1 [Compound 559]
14 | 100 to 1000 | C[C@H]1NC(=O)[C@@H](Cc2ccc(NC(=O)[C@H](Cc3ccccc3Cl)NC(=O)C3(c4ccc(F)cc4)CC3)cc2)NC(=O)CC2(CCCC2)CC(=O)N(C)CCN(C)CCN(C)C1=O [Compound 563]
15 | 100 to 1000 | C[C@H]1NC(=O)[C@@H](Cc2ccc(NC(=O)[C@@H](Cc3ccccc3Cl)NC(=O)Cc3ccc(F)cc3)cc2)NC(=O)[C@@H]2CC[C@@H](C2)C(=O)NCCCCCNC1=O [Compound 564]
16 | < 100 | CN1CCOCCOCCNC(=O)[C@@H](Cc2ccc(NC(=O)[C@H](Cc3ccccc3Cl)NC(=O)C(F)(F)c3ccccc3)cc2)NC(=O)CC2(CCCC2)CC1=O [Compound 565]
17 | < 100 | COC(=O)N[C@@H](Cc1ccccc1Cl)C(=O)Nc1ccc(C[C@H]2NC(=O)CC3(CCCC3)CC(=O)N(C)CCOCCOCCNC2=O)cc1 [Compound 568]
18 | < 100 | COC(=O)N[C@@H](Cc1ccccc1Cl)C(=O)Nc1ccc(C[C@H]2NC(=O)CC3(CCCC3)CC(=O)N(C)CCOCCN(C)C(=O)[C@@H](C)NC2=O)cc1 [Compound 569]
19 | < 100 | COC(=O)N[C@@H](Cc1ccccc1Cl)C(=O)Nc1ccc(C[C@H]2NC(=O)CC3(CCCC3)CC(=O)N(C)CCCCCN(C)C(=O)[C@@H](C)NC2=O)cc1 [Compound 570]
20 | < 100 | C[C@H]1NC(=O)[C@@H](Cc2ccc(NC(=O)[C@H](Cc3ccccc3Cl)NC(=O)C(=O)c3ccccc3)cc2)NC(=O)CC2(CCCC2)CC(=O)N(C)CCN(C)CCN(C)C1=O [Compound 573]
21 | < 100 | C[C@H]1NC(=O)[C@@H](Cc2ccc(NC(=O)[C@H](Cc3ccccc3Cl)NC(=O)OCc3ccccc3)cc2)NC(=O)CC2(CCCC2)CC(=O)NCCCCCNC1=O [Compound 576]
22 | < 100 | CCOC(=O)N[C@@H](Cc1ccccc1Cl)C(=O)Nc1ccc(C[C@H]2NC(=O)CC3(CCCC3)CC(=O)NCCCCCNC(=O)[C@@H](C)NC2=O)cc1 [Compound 577]

Row | IC50 [nM] | Structure (SMILES)
23 | < 100 | CC(C)OC(=O)N[C@@H](Cc1ccccc1Cl)C(=O)Nc1ccc(C[C@H]2NC(=O)CC3(CCCC3)CC(=O)NCCCCCNC(=O)[C@@H](C)NC2=O)cc1 [Compound 578]
24 | < 100 | CCOC(=O)N[C@@H](Cc1ccccc1Cl)C(=O)Nc1ccc(C[C@H]2NC(=O)CC3(CCCC3)CC(=O)NCCOCCOCCNC2=O)cc1 [Compound 579]
25 | < 100 | CC(C)OC(=O)N[C@@H](Cc1ccccc1Cl)C(=O)Nc1ccc(C[C@H]2NC(=O)CC3(CCCC3)CC(=O)NCCOCCOCCNC2=O)cc1 [Compound 580]
26 | < 100 | CN1CCOCCOCCNC(=O)[C@@H](Cc2ccc(NC(=O)[C@H](Cc3ccccc3Cl)NC(=O)[C@H](O)c3ccccc3)cc2)NC(=O)CC2(CCCC2)CC1=O [Compound 581]
27 | < 100 | C[C@H]1NC(=O)[C@@H](Cc2ccc(NC(=O)[C@H](Cc3ccccc3Cl)NC(=O)[C@H](O)c3ccccc3)cc2)NC(=O)CC2(CCCC2)CC(=O)N(C)CCOCCN(C)C1=O [Compound 583]
28 | < 100 | CN1CCOCCOCCNC(=O)[C@@H](Cc2ccc(NC(=O)[C@H](Cc3ccccc3Cl)NC(=O)C(=O)c3ccccc3)cc2)NC(=O)CC2(CCCC2)CC1=O [Compound 585]
29 | < 100 | C[C@H]1NC(=O)[C@@H](Cc2ccc(NC(=O)[C@H](Cc3ccccc3Cl)NC(=O)OCc3ccccc3)cc2)NC(=O)CC2(CCCC2)CC(=O)N(C)CCN(C)CCN(C)C1=O [Compound 587]
30 | < 100 | COC(=O)N[C@@H](Cc1ccccc1Cl)C(=O)Nc1ccc(C[C@H]2NC(=O)CC3(CCCC3)CC(=O)N(C)CCN(C)CCN(C)C(=O)[C@@H](C)NC2=O)cc1 [Compound 588]
31 | < 100 | CN1CCOCCOCCN(C)C(=O)[C@@H](Cc2ccc(NC(=O)[C@H](Cc3ccccc3Cl)NC(=O)Cc3ccccc3)cc2)NC(=O)CC2(CCCC2)CC1=O [Compound 589]
32 | < 100 | CN1CCOCCOCCN(C)C(=O)[C@@H](Cc2ccc(NC(=O)[C@H](Cc3ccccc3Cl)NC(=O)Cc3ccc(F)cc3)cc2)NC(=O)CC2(CCCC2)CC1=O [Compound 590]
33 | < 100 | CN1CCOCCOCCN(C)C(=O)[C@@H](Cc2ccc(NC(=O)[C@H](Cc3ccccc3Cl)NC(=O)C(F)(F)c3ccccc3)cc2)NC(=O)CC2(CCCC2)CC1=O [Compound 591]
34 | 100 to 1000 | C[C@H]1NC(=O)[C@@H](Cc2ccc(NC(=O)[C@H](Cc3ccccc3Cl)NC(=O)Cc3ccc(F)cc3)cc2)NC(=O)[C@H]2CC[C@H](CC2)C(=O)NCCCCCNC1=O [Compound 592]
35 | < 100 | C[C@H]1NC(=O)[C@@H](Cc2ccc(NC(=O)[C@H](Cc3ccccc3Cl)NC(=O)C(=O)c3ccccc3)cc2)NC(=O)CC2(CCCC2)CC(=O)N(C)CCOCCN(C)C1=O [Compound 594]
36 | < 100 | O=C1CC2(CCCC2)CC(=O)N[C@H](Cc2ccc(NC(=O)[C@@H](NC(=O)C(F)(F)c3ccccc3)C3CCCCC3)cc2)C(=O)NCCOCCOCCN1 [Compound 595]
37 | < 100 | CN(C)c1ccc(CC(=O)N[C@H](C(=O)Nc2ccc(C[C@H]3NC(=O)CC4(CCCC4)CC(=O)NCCOCCOCCNC3=O)cc2)C2CCCCC2)cc1 [Compound 596]
38 | < 100 | O=C1CC2(CCCC2)CC(=O)N[C@H](Cc2ccc(NC(=O)[C@H](Cc3ccccc3Cl)NC(=O)C(F)(F)c3ccccc3)cc2)C(=O)NCCCCCCCCN1 [Compound 597]
39 | < 100 | CN(C)c1ccc(CC(=O)N[C@H](C(=O)Nc2ccc(C[C@H]3NC(=O)CC4(CCCC4)CC(=O)NCCCCCCCCNC3=O)cc2)C2CCCCC2)cc1 [Compound 599]
40 | < 100 | C[C@H]1NC(=O)[C@@H](Cc2ccc(NC(=O)[C@@H](NC(=O)C(F)(F)c3ccccc3)C3CCCCC3)cc2)NC(=O)CC2(CCCC2)CC(=O)N(C)CCOCCN(C)C1=O [Compound 602]
41 | < 100 | C[C@H]1NC(=O)[C@@H](Cc2ccc(NC(=O)[C@@H](NC(=O)Cc3ccc(N(C)C)cc3)C3CCCCC3)cc2)NC(=O)CC2(CCCC2)CC(=O)N(C)CCOCCN(C)C1=O [Compound 603]
42 | < 100 | C[C@H]1NC(=O)[C@@H](Cc2ccc(NC(=O)[C@@H](NC(=O)C(F)(F)c3ccccc3)C3CCCCC3)cc2)NC(=O)CC2(CCCC2)CC(=O)N(C)CCN(C)CCN(C)C1=O [Compound 604]
43 | < 100 | C[C@H]1NC(=O)[C@@H](Cc2ccc(NC(=O)[C@@H](NC(=O)Cc3ccc(N(C)C)cc3)C3CCCCC3)cc2)NC(=O)CC2(CCCC2)CC(=O)N(C)CCN(C)CCN(C)C1=O [Compound 605]

Row | Structure (SMILES) | IC50 [nM]
44 | O=C1CC2(CCCC2)CC(=O)N[C@H](Cc2ccc(NC(=O)[C@H](Cc3ccccc3Cl)NC(=O)Oc3ccc(F)cc3)cc2)C(=O)NCCOCCOCCN1 [Compound 572] | < 100
45 | C[C@H]1NC(=O)[C@@H](Cc2ccc(NC(=O)[C@H](Cc3ccccc3Cl)NC(=O)Oc3ccccc3)cc2)NC(=O)CC2(CCCC2)CC(=O)N(C)CCN(C)CCN(C)C1=O [Compound 574] | < 100
46 | C[C@H]1NC(=O)[C@@H](Cc2ccc(NC(=O)[C@H](Cc3ccccc3Cl)NC(=O)Oc3ccc(F)cc3)cc2)NC(=O)CC2(CCCC2)CC(=O)NCCCCCNC1=O [Compound 575] | < 100
47 | C[C@H]1NC(=O)[C@@H](Cc2ccc(NC(=O)[C@H](Cc3ccccc3Cl)NC(=O)Oc3ccccc3)cc2)NC(=O)CC2(CCCC2)CC(=O)NCCCCCNC1=O [Compound 586] | < 100

Source: US9284283B2, “Macrocyclic compounds for modulating IL-17” (ENSEMBLE THERAPEUTICS CORPORATION, priority 2012, dated 2016)
